Measurements taken from patent US20150051231A1, “SYNERGISTIC COMBINATIONS OF TRIAZOLES, STROBILURINS AND BENZIMIDAZOLES, USES, FORMULATIONS, PRODUCTION PROCESSES AND APPLICATIONS USING THE SAME” (FMC Quimica do Brasil Ltda., priority 2010, published 2015).
Read-outs that look alike come from different tables or passages of the source.

What was measured:
Assay type in all cases: in vivo
[1] = tested on: Phakopsora pachyrhizi Sydow; experiment: Field trial, soybean rust AUDPC and yield (Table 6), Rondonópolis-MT
Description: The association of azoxystrobin with the tebuconazole+carbendazim mixture provided high control efficacy of rust (see Table 6 below). […] The association of the three fungicides tebuconazole, carbendazim and azoxystrobin provides effective control of target spot (Corynespora cassiicola) and anthracnose (Colletotrichum truncatum) (see Table 5 above), and contains fungicides with three modes of action—carbendazim (benzimidazole)—acting on the integrity of tubulin; tebuconazole (triazole)—sterol synthesis inhibitors; azoxystrobin (strobilurin)—inhibits mitochondrial respiration.
The association of kresoxim-methyl with the tebuconazole+carbendazim mixture provided high control efficacy of rust (see Table 6 above). […] The association of the three fungicides tebuconazole, carbendazim and kresoxim-methyl provides effective control of target spot (Corynespora cassiicola) and anthracnose (Colletotrichum truncatum) (see Table 5 above), and contains fungicides with three modes of action—carbendazim (benzimidazole)—acting on the integrity of tubulin; tebuconazole (triazole)—sterol synthesis inhibitors; […] (strobilurin)-inhibits mitochondrial respiration.

[2] = tested on: Phakopsora pachyrhizi Sydow; details: three preventive applications from V9
Procedure: This study was conducted to evaluate the efficacy of the products in the control of Asian rust. The start of preventive applications in V9, the second application was made 20 days after the first (in R4) and the third application was made 15 days after the second. Emulsifiable mineral oil Assist was added, at the dose of 0.5% v/v in all treatments, except for the PrioriXtra treatments, in which 0.5% v/v Nimbus was added, and Fox, in which Aureo was added at the dose of 0.4 L/ha.

Corynespora cassiicola = experiment: Target spot severity in soybean 14 days after the third application (Table 5), Rondonópolis-MT; details: for Severity (%) C. cassiicola: 14 days after the third application; for control of target spot (C. cassiicola) in soybean crops, in words: isolated use, PrioriXtra under conditions of high disease severity
Description: (§1) In addition to these benefits, the association of the three fungicides—tebuconazole, carbendazim and azoxystrobin or tebuconazole, carbendazim and kresoxim-methyl provides greater safety regarding protection against the emergence of fungi resistant to fungicides and improved control spectrum.

[3] = tested on: Phakopsora pachyrhizi Sydow; experiment: Field trial, interactions of fungicides for control of Asian soybean rust, tebuconazole series (Tables 1 and 3), Rondonópolis-MT; details: for control of rust (Phakopsora pachyrhizi Sydow) in soybean crops, in words: isolated use; for Control (%) Lower canopy, obtained by AUDPC / Control (%) Upper canopy, obtained by AUDPC: rates g/ha ai: Kresoxim-methyl 125, Azoxystrobin 30, Tebuconazole 100, Teb+Carb+Kresoxim 100 + 200 + 125, Teb+Carb+Azoxystrobin 100 + 200 + 30, Teb+Carb 100 + 200
Description: (See Table 1 below), carbendazim even at a dose of 250 g/ha ai, and tebuconazole at the dose of 100 g/ha ai.
The association of azoxystrobin with the tebuconazole+carbendazim mixture (BF 488) provided a control efficacy gain and a residual control effect even under high pressure of Asian rust. […] The addition of azoxystrobin from 6 g/ha ai in the mixture of tebuconazole+carbendazim (100+200 g/ha ai, respectively) has already reflected in rust efficacy gain, providing control similar to the efficacy standard of azoxystrobin+cyproconazole (60+24 g/ha ai, respectively), and this product is marketed by Syngenta as PrioriXtra®. The addition of azoxystrobin in doses of 18, 24 and 30 g/ha ai together with tebuconazole+carbendazim was effective for obtaining yields higher than the market standard containing 60 g/ha of azoxystrobin.
The association of kresoxim-methyl with the tebuconazole+carbendazim mixture (BF 452) provided a control efficacy gain and a residual control effect even under high pressure of Asian rust. […] The addition of kresoxim-methyl from 75 g/ha ai in the mixture of tebuconazole+carbendazim (100+200 g/ha ai, respectively) has already reflected in rust efficacy gain, providing control similar to the efficacy standard of azoxystrobin+cyproconazole (60+24 g/ha ai, respectively), and this product is marketed by Syngenta as PrioriXtra®.
(§2) A study was prepared to analyze the interaction effect using the multiplicative model of distribution proposed by Colby (1967), using Equation 1 below to calculate the expected response: […]
(§3) wherein E is the expected reduction in disease development (such as the reduction in the percentage of expected control or the reduction in the area under the disease-progress curve), and x and y represent the reduction in disease development achieved by treatment with fungicide x and y, respectively.
The possible interaction responses are: • a) antagonism, which is characterized by joint action of two fungicides showing the response of a test organism in their combination that is lower than the expected response, obtained by appropriate reference models, as proposed by Colby (1967); • b) synergism, which is the cooperative action of two fungicides showing a response in the test organism on the joint application that is higher than the expected response obtained by appropriate reference models, and • c) additive, which occurs when two fungicides react by presenting a response in the test organism on the joint application that is equal to the expected response obtained by appropriate reference models.
To use the model proposed by Colby, the association tebuconazole+carbendazim (100+200, respectively) was established for a comparative test with azoxystrobin or kresoxim-methyl and a response of the type of interaction (see Table 3 below).

[4] = tested on: Phakopsora pachyrhizi Sydow; details: three preventive applications from R1
Procedure: This study was conducted to evaluate the efficacy of the products in the control of Asian soybean rust (Valiosa). Preventive applications started in R1, the second application was made 19 days after the first (in R5.1) and the third application was made 15 days after the second (in R5.5). Emulsifiable mineral oil Assist was added at the dose of 0.5% v/v in all treatments, except for the PrioriXtra treatments, in which 0.5% v/v Nimbus was added.

[5] = tested on: Phakopsora pachyrhizi Sydow; details: three preventive applications from R1; remark: listed apart in the source
Procedure: This study was conducted to evaluate the efficacy of the products in the control of Asian soybean rust (Favorita). Preventive applications started in R1, the second application was made 19 days after the first (in R4) and the third application was made 15 days after the second (in R5.3). Emulsifiable mineral oil Assist was added at the dose of 0.5% v/v in all treatments, except for the PrioriXtra treatments, in which 0.5% v/v Nimbus was added. […] The efficacy of BF 452 and BF 465 is consistent, reducing the disease throughout the soybean plant canopy.

[6] = tested on: Phakopsora pachyrhizi Sydow; details: three preventive applications from R1; remark: listed apart in the source
Procedure: This study was conducted to evaluate the efficacy of the products in the control of Asian soybean rust. Preventive applications started in R1, with the second application occurring 20 days after the first application and the third application 15 days after the second. Emulsifiable mineral oil Assist was added, at the dose of 0.5% v/v in all treatments, except for the PrioriXtra treatments, in which 0.5% v/v Nimbus was added, and Fox, in which Aureo was added at the dose of 0.4 L/ha.

Colletotrichum truncatum = experiment: Anthracnose severity in soybean 14 days after the third application (Table 5), Rondonópolis-MT; details: for Severity (%) C. truncatum: 14 days after the third application; for control of anthracnose (C. truncatum) in soybean crops, in words: isolated use, PrioriXtra under conditions of high disease severity
Description: as §1

[7] = tested on: Phakopsora pachyrhizi Sydow; experiment: Field trial, interactions of fungicides for control of Asian soybean rust, flutriafol series (Tables 2 and 4), Rondonópolis-MT; details: for Control (%) Lower canopy, obtained by AUDPC / Control (%) Upper canopy, obtained by AUDPC: rates g/há ai: Kresoxim-methyl 125, Azoxystrobin 30, Flutriafol 62.5, Flut+Carb+Kresoxim 62.5 + 200 + 125, Flut+Carb+Azoxystrobin 62.5 + 200 + 30, Flut+Carb 62.5 + 200
Procedure: as §2, §3
Regarding the study of the interaction effect for the association of flutriafol+carbendazim+azoxystrobin and flutriafol+carbendazim+kresoxim-methyl, the model proposed by Colby was used.

For `CC(C)(C)C(O)(CCc1ccc(Cl)cc1)Cn1cncn1` (racemic) [tebuconazole, (RS)-1-p-chlorophenyl-4,4-dimethyl-3-(1H-1,2,4-triazol-1-ylmethyl)pentan-3-ol], the “AUPDC* Lower Canopy” value ([1]; rate 100 g/ha a.i.) was 747.4, the “AUPDC* Upper Canopy” value ([1]; rate 100 g/ha a.i.) was 227.5 and the Productivity ([1]; rate 100 g/ha a.i.) was 2570.8 kg/ha. For the same compound, the “efficacy in controlling soybean rust, in words” value (“efficacy” below) [2] was “not effective in controlling soybean rust”, the “Severity (%) C. cassiicola” value (Corynespora cassiicola; rate 100 g/ha a.i.) was 23.5% and the “control of target spot (C. cassiicola) in soybean crops, in words” value (“control of target spot (C. cassiicola)” for short) (Corynespora cassiicola) was “not effective”. For the same compound, the “control of rust (Phakopsora pachyrhizi Sydow) in soybean crops, in words” value (“control of rust” for short) [3] was “not effective in controlling rust”, the “AUPDC* Lower Canopy” value ([3]; rate 100 g/ha a.i.) was 896.0 and the “AUPDC* Upper Canopy” value ([3]; rate 100 g/ha a.i.) was 427.0. The Productivity ([3]; rate 100 g/ha a.i.) was 2152.0 kg/ha, the “Control (%) Lower canopy, obtained by AUDPC” value (“Control (%) Lower canopy” below) [3] was 32% and the “Control (%) Upper canopy, obtained by AUDPC” value (from here on “Control (%) Upper canopy”) [3] was 71%. For the same compound, the “efficacy” value [4] was “not effective in controlling soybean rust”, the “efficacy” value [5] was “not effective in controlling soybean rust” and the “efficacy” value [6] was “not effective in controlling soybean rust”. For the same compound, the “Severity (%) C. truncatum” value (Colletotrichum truncatum; rate 100 g/ha a.i.) was 30.0% and the “control of anthracnose (C. truncatum) in soybean crops, in words” value (shortened to “control of anthracnose (C. truncatum)”) (Colletotrichum truncatum) was “not effective”.

With `OC(Cn1cncn1)(c1ccc(F)cc1)c1ccccc1F` (racemic) [flutriafol, (RS)-2,4′-difluoro-α-(1H-1,2,4-triazol-1-ylmethyl)benzhydryl alcohol] the “Severity (%) C. cassiicola” value (Corynespora cassiicola; rate 62.5 g/ha a.i.) was 22.5%, the “control of target spot (C. cassiicola)” value (Corynespora cassiicola) was “not effective” and the “control of rust” value ([7]; isolated use) was “not effective in controlling rust”. The “AUPDC* Lower Canopy” value ([7]; rate 62.5 g/ha a.i.) was 1312.6, the “AUPDC* Upper Canopy” value ([7]; rate 62.5 g/ha a.i.) was 1097.2 and the Productivity ([7]; rate 62.5 g/ha a.i.) was 1578.2 kg/ha. For the same compound, the “Control (%) Lower canopy” value [7] was 24.0%, the “Control (%) Upper canopy” value [7] was 26.5% and the “Severity (%) C. truncatum” value (Colletotrichum truncatum; rate 62.5 g/ha a.i.) was 31.3%. The “control of anthracnose (C. truncatum)” value (Colletotrichum truncatum) was “not effective”.

For `COC(=O)Nc1nc2ccccc2[nH]1` [carbendazim], the “AUPDC* Lower Canopy” value ([1]; rate 250 g/ha a.i.) was 361.8, the “AUPDC* Upper Canopy” value ([1]; rate 250 g/ha a.i.) was 247.5 and the Productivity ([1]; rate 250 g/ha a.i.) was 1323.7 kg/ha. For the same compound, the “AUPDC* Lower Canopy” value ([7]; rate 250 g/ha a.i.) was 1576.3, the “AUPDC* Upper Canopy” value ([7]; rate 250 g/ha a.i.) was 1317.0 and the Productivity ([7]; rate 250 g/ha a.i.) was 1293.0 kg/ha. For the same compound, the “control of rust” value [3] was “not effective in controlling rust”, the “AUPDC* Lower Canopy” value ([3]; rate 250 g/ha a.i.) was 261.0 and the “AUPDC* Upper Canopy” value ([3]; rate 250 g/ha a.i.) was 1148.0. For the same compound, the Productivity ([3]; rate 250 g/ha a.i.) was 1324.0 kg/ha.

With `CO/N=C(/C(=O)OC)c1ccccc1COc1ccccc1C` [kresoxim-methyl, methyl(E)-methoxyimino[α-(o-tolyloxy)-o-tolyl]acetate] the “AUPDC* Lower Canopy” value ([1]; rate 125 g/ha a.i.) was 1245.9, the “AUPDC* Upper Canopy” value ([1]; rate 125 g/ha a.i.) was 1074.1 and the Productivity ([1]; rate 125 g/ha a.i.) was 1848.5 kg/ha. The “Severity (%) C. cassiicola” value (Corynespora cassiicola; rate 125 g/ha a.i.) was 22.3%, the “control of target spot (C. cassiicola)” value (Corynespora cassiicola) was “not effective” and the “AUPDC* Lower Canopy” value ([7]; rate 125 g/ha a.i.) was 1415.8. For the same compound, the “AUPDC* Upper Canopy” value ([7]; rate 125 g/ha a.i.) was 1261.3, the Productivity ([7]; rate 125 g/ha a.i.) was 1479.5 kg/ha and the “Control (%) Lower canopy” value [7] was 18.0%. For the same compound, the “Control (%) Upper canopy” value [7] was 15.5%, the “control of rust” value [3] was “not effective in controlling rust” and the “AUPDC* Lower Canopy” value ([3]; rate 125 g/ha a.i.) was 1146.0. The “AUPDC* Upper Canopy” value ([3]; rate 125 g/ha a.i.) was 978.0, the Productivity ([3]; rate 125 g/ha a.i.) was 1349.0 kg/ha and the “Control (%) Lower canopy” value [3] was 13%. The “Control (%) Upper canopy” value [3] was 34%, the “Severity (%) C. truncatum” value (Colletotrichum truncatum; rate 125 g/ha a.i.) was 19.5% and the “control of anthracnose (C. truncatum)” value (Colletotrichum truncatum) was “not effective”.
